Experimental data: patent US20230285570A1, “THERAPEUTICALLY USEFUL CURE-PRO MOLECULES FOR E3 LIGASE MEDIATED DEGRADATION OF PROTEINS, AND METHODS OF MAKING AND USING THEM” (CORNELL UNIVERSITY, priority 2020, published 2023)
“Also recorded” adds a separate entry of the source.

Key:
Type in all cases: cell-based
BRD4 [1] = target: T1, BRD4 (Homo sapiens, UniProt O60885); test: CURE-PRO-mediated BRD4 degradation in HCT116 cells, WES (ProteinSimple); design: endogenous in cells
Experimental: All cell lines were purchased from ATCC or DSMZ and grown at 37° C. with 5% CO2. Human HeLa cells were cultured in complete growth medium (Dulbecco's modified Eagle's medium (DMEM) supplemented with 10% FBS); MCF7 cells were cultured in complete growth medium (Dulbecco's modified Eagle's medium (DMEM) supplemented with 10% FBS and 0.01 mg/ml human recombinant insulin (Sigma Aldrich); Namalwa and Ramos cells were cultured in complete growth medium (RPMI 1640 medium supplemented with 10% FBS); HCT116 and HT29 cells were cultured in complete growth medium (McCoy's 5a Medium supplemented with 10% FBS). For cellular degradation of BRD4 studies cells were seeded in a 12-well plate at 70-80% confluency, allowed to attach overnight, and incubated with the indicated compounds for the indicated time. When indicated, a 15-minute pretreatment with 10 μM pomalidomide, 10 μM VHL298, 10 μM Nutlin3a, 1 μM MG-132 or 1 μM Carfilzomib was performed before the addition of CURE-PROs. For washout studies, after CURE-PRO treatment, media was aspirated and incubated with complete medium for the indicated time before lysis.
WES Simple analysis was performed on WES system (ProteinSimple-Biotechne) according to the manufacturer's instructions. Total protein concentrations of cell lysates were determined by the Pierce BCA kit (Thermo Fisher). 3 μL of 0.3 μg/μL of the protein lysate was loaded onto a 12- to 230-kDa WES assay plate (ProteinSimple) where 300 nL sample was withdrawn through a capillary, subjected to electrophoretic separation of proteins by size, and followed by the simultaneous, HRP-based detection of proteins using the Anti-Rabbit Detection Module (Proteinsimple: #DM-001). The electropherograms were checked then the automatic peak detection was manually corrected if it was required.
(§1) HCT116 cells (3×10^6) were treated for 24 hours with the compounds solubilized in DMSO. Compounds were added at 1 μM-10 μM each. Standardized protein samples were electrophoresed and imaged as described in the WES ProteinSimple section above. FIGS. 59, 60, and 61 depict the concentration-dependence of CURE-PRO-mediated BRD4 degradation using MDM2 ligands.
as §1, with “62” for “59, 60,”, “63” for “61”
HCT116 cells (3×10^6) were treated for 24 hours with the compounds solubilized in DMSO. CURE-PRO monomers were added at 10 μM each and the proteasomal inhibitors at 1 μM. Standardized protein samples were electrophoresed and imaged as described in the WES ProteinSimple section above. FIG. 68 depicts the dependence of the proteasome for CURE-PRO-mediated BRD4 degradation.

BRD4 [2] = target: T1, BRD4; test: CURE-PRO-mediated BRD4 degradation in HeLa cells, Western blot; design: endogenous in cells; host or cells: HeLa; conditions: 24 h
Method in brief: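 HeLa cells (2.5×10^6) treated 24 h with DMSO-solubilized compounds, degrader pairs combined 1:1, at 1 nM-1 μM, 1-10 μM, 10 μM or 10 and 100 μM each depending on series. RIPA lysates (10-20 μg protein) run on SDS-PAGE and immunoblotted for BRD4 with ECL detection.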

BRD4 [3] = target: T1, BRD4; test: Summary of BRD4 degradation by CURE-PRO pairs, estimated from Western Blot or WES; design: endogenous in cells
Method in brief: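 Degradation read-out from immunoblot with ECL, or WES capillary electrophoresis with HRP detection, of RIPA lysates. Cells (Namalwa, Ramos, HeLa, MCF7, HT29 or HCT116) were exposed to DMSO-solubilized compounds for 24 h; a check mark marks 30% to 70% or higher degradation.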

BRD2 = target: T2, BRD2 (Homo sapiens, UniProt P25440); test: BRD protein family degradation in HCT116 cells, Western blot: BRD2; conditions: 1:1 with MDM2 ligands 8310 and 8312 (each), HCT116, 24 h, 100 nM-10 μM
T2 construct: endogenous in cells; host or cells: HCT116
T2 sequence (P25440 whole entry): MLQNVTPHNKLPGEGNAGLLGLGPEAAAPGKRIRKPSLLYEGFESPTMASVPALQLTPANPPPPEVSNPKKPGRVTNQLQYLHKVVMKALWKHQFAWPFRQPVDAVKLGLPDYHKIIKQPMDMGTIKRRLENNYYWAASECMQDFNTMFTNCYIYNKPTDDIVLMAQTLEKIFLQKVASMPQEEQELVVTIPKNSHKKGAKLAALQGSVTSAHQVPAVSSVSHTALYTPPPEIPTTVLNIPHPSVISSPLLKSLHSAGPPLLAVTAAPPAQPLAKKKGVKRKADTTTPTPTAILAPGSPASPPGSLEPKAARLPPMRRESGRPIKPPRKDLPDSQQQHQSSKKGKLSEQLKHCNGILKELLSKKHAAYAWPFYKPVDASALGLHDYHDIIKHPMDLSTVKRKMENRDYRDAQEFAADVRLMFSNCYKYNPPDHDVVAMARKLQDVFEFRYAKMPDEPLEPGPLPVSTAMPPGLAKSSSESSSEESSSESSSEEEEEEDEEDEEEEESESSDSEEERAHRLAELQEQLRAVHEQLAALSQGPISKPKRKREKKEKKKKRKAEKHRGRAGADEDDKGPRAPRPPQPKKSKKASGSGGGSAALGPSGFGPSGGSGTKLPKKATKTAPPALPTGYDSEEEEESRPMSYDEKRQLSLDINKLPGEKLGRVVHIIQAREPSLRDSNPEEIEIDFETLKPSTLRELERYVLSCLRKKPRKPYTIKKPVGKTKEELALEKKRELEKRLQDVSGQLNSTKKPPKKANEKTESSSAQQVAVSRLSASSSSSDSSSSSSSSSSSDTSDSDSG
Experimental: Namalwa, Ramosm HeLa, MCF7, or HT29 HCT116 cells (2.5-3×10^6) were treated for 24 hours with the indicated compounds solubilized in DMSO. The cells were washed in ice-cold PBS and were then lysed in RIPA lysis buffer (150 mM NaCl, 5 mM EDTA, 1% NP-40, 0.5% sodium deoxycholate, 0.1% SDS, 50 mM Tris, pH 8.0.) with Roche protease inhibitor complete cocktail and phosphatase inhibitors (10 mM sodium fluoride, 10 mM sodium pyrophosphate, 1 mM sodium orthovanadate and 20 mM β-glycerophosphate). The total protein concentrations were determined by Bradford Protein Assay (Pierce) and 10-20 μg of protein was loaded onto 4-15% Tris-Glycine gradient gels (Biorad). After standard gel electrophoresis, the separated proteins were transferred to PVDF membrane by wet transfer. The immunoblots were then blocked for 1 hour in 5% skim milk in TBST or 5% BSA in TBST, according to manufacturer's instructions, before an overnight incubation at 4° C. with indicated antibodies and membranes. […] Signal was detected with ECL Western Blotting Substrate (Pierce) and X-ray film processed with a Konica SRX-101 X-ray film processor or captured by Bio-Rad's Chemidoc Imaging system. […]

| SMILES | BRD4 degradation (BRD4 [1]; 1:1 with MDM2 ligand 8313, HCT116, 24 h, 1 μM-10 μM each) | BRD4 degradation (BRD4 [1]; 1:1 with MDM2 ligand 8314, HCT116, 24 h, 1 μM-10 μM each) | BRD4 degradation (BRD4 [2]; co-treated 1:1 with CRBN ligand 8046, HeLa, 10 μM each) | BRD4 degradation (BRD4 [2]; co-treated 1:1 with CRBN ligand 8066, HeLa, 10 μM each) | Degradation of BRD4, combination with CRBN ligand 8046 (BRD4 [3]; Table 1, aryl-boronic acid BRD4 ligand + 8046) | Degradation of BRD4, combination with CRBN ligand 8066 (BRD4 [3]; Table 1, aryl-boronic acid BRD4 ligand + 8066) | Degradation of BRD4, combination with MDM2 ligand 8313 (BRD4 [3]; Table 2, aryl-boronic acid BRD4 ligand + 8313) | Degradation of BRD4, combination with MDM2 ligand 8314 (BRD4 [3]; Table 2, aryl-boronic acid BRD4 ligand + 8314) | Degradation of BRD4, combination with VHL ligand 8305 (BRD4 [3]; Table 3, aryl-boronic acid BRD4 ligand + 8305) | BRD4 degradation (BRD4 [1]; 1:1 with MDM2 ligand 8310, HCT116, 24 h, 10 μM) | BRD4 degradation (BRD4 [1]; 1:1 with MDM2 ligand 8312, HCT116, 24 h, 10 μM) | BRD4 degradation (BRD4 [2]; BRD4 monomer alone, HeLa, 1-10 μM) | BRD4 degradation (BRD4 [2]; co-treated 1:1 with CRBN ligand 8048, HeLa, 1-10 μM each) | BRD4 degradation (BRD4 [2]; co-treated 1:1 with CRBN ligand 8049, HeLa, 1-10 μM each) | BRD2 degradation (BRD2) | Degradation of BRD4, combination with CRBN ligand 8048 (BRD4 [3]; Table 4, aromatic 1,2-diol BRD4 ligand + 8048) | Degradation of BRD4, combination with MDM2 ligand 8310 (BRD4 [3]; Table 5, aromatic 1,2-diol BRD4 ligand + 8310) | Degradation of BRD4, combination with MDM2 ligand 8312 (BRD4 [3]; Table 5, aromatic 1,2-diol BRD4 ligand + 8312) |
| --- | --- | --- | --- | --- | --- | --- | --- | --- | --- | --- | --- | --- | --- | --- | --- | --- | --- | --- |
| CCNC(=O)C[C@@H]1N=C(c2ccc(Cl)cc2)c2cc(OCCCCC(=O)Nc3cccc(B(O)O)c3)ccc2-n2c(C)nnc21 [BRD-E20, (3-(5-(((4S)-6-(4-chlorophenyl)-4-(2-(ethylamino)-2-oxoethyl)-1-methyl-4H-benzo[f][1,2,4]triazolo[4,3-a][1,4]diazepin-8-yl)oxy)pentanamido)phenyl)boronic acid] | had no effect on BRD4 protein levels | caused partial loss of the BRD4 protein; also recorded: Degradation is observed | causes degradation of BRD4; also recorded: Degradation is noted | causes degradation of BRD4; also recorded: Degradation is noted | √ (A black check mark indicates efficacy of 30% to 70% or higher protein degradation) | √ (A black check mark indicates efficacy of 30% to 70% or higher protein degradation) | √ (A black check mark indicates efficacy of 30% to 70% or higher protein degradation) | √ (A black check mark indicates efficacy of 30% to 70% or higher protein degradation) | √ (A black check mark indicates efficacy of 30% to 70% or higher protein degradation) |  |  |  |  |  |  |  |  |  |
| CCNC(=O)C[C@@H]1N=C(c2ccc(Cl)cc2)c2cc(OCCOCCNC(=O)c3cccc(O)c3O)ccc2-n2c(C)nnc21 [BRD-N39, N-(2-(2-(((4S)-6-(4-chlorophenyl)-4-(2-(ethylamino)-2-oxoethyl)-1-methyl-4H-benzo[f][1,2,4]triazolo[4,3-a][1,4]diazepin-8-yl)oxy)ethoxy)ethyl)-2,3-dihydroxybenzamide] |  |  |  |  |  |  |  |  |  | caused BRD4 degradation | caused BRD4 degradation | there is no degradation of BRD4 | causes degradation of BRD4; also recorded: Degradation is noted | no evidence of BRD4 degradation | BRD2 to a lesser extent; also recorded: Degradation is evident | √ (A black check mark indicates efficacy of 30% to 70% or higher protein degradation) | √ (A black check mark indicates efficacy of 30% to 70% or higher protein degradation) | √ (A black check mark indicates efficacy of 30% to 70% or higher protein degradation) |
